Where two headings read alike, the source gives them in different places.
Columns and labels:
BBB permeability [1] = test: Example 6: mifepristone s.c. injection in rats, delivery of adriamycin to brain; type: in vivo; settings: mifepristone 2 mg s.c. 4 h before sacrifice, adriamycin 0.5 mg i.v. 2 h before sacrifice
Procedure: Animal sacrifice is by decapitation during the first four hours of the light cycle. Blood is collected and brains removed and frozen on dry ice for storage at −80° C. Adriamycin concentration is measured in the brains of the experimental animals.

BBB permeability [2] = test: Example 2: mifepristone pellet in rats, brain haloperidol and clozapine levels and brain dopamine metabolites; type: in vivo
Procedure: Rats (male Sprague Dawley 175-200 grams) are maintained, 3 rats per cage, under controlled temperature and lighting (12 hours light/12 hours dark) with food and water ad libitum. […] Two hours prior to sacrifice the animals are injected with either haloperidol (1 mg/kg s.c; RBI Natick, Mass.) or an equivalent volume of vehicle (0.3% tartaric acid, pH 5.3) or with either clozapine (15 mg/kg s.c.; RBI, Natick, Mass.) or vehicle (0.9% saline plus 0.8% acetic acid). Animal sacrifice is by decapitation during the first four hours of the light cycle. Blood is collected and brains removed and frozen on dry ice for storage at −80° C. Frozen brains are sliced into 250 μm sections with a cryostat. The medial prefrontal cortex (AP 13.7 to 12.2 mm) is dissected with a scalpel, the striatum (AP 10.7 to 9.7 mm) is removed with stainless steel cannulae from frozen slices and the core and shell of the nucleus accumbens (AP 10.7 to 9.7 mm) is removed. Brain regions are dissected within 24-72 hours of slicing. […] Dopamine metabolites homovanillic acid (HVA) and dihydroxyphenylacetic acid (DOPAC) are measured in the brains of the experimental animals. […] Tissue pellets are dissolved in 1.0 N NaOH for protein determination (BioRad, Richmond, Calif.). Cortical supernatants are filtered through a 0.45 μm filter and 5-80 μl of supernatant is injected directly onto a C18 reverse phase analytical column (5 μm, 250×4.6 mm; Biophase ODS, BAS, West Lafayette, Ind.) protected by a precolumn cartridge (5 μm, 30×4.6 mm, BAS) as described with modification (Lindley et al. Proc. Soc. Exp. Biol. Med. 188:282-286 (1988)). DOPAC and HVA were detected using an electrochemical detector. For cortical regions, the conditioning electrode is set at +0.35 V and the dual analytical electrode is set at +0.02 V and −0.35 V, respectively (ESA, Bedford, Mass.). For other regions a single analytical electrode set at +0.72 V is used (BAS, West Lafayette, Ind.). Brain clozapine levels are analyzed by National Medical Services, Inc. (Willow Grove, PN) while brain and plasma haloperidol and reduced haloperidol and plasma clozapine levels are analyzed by Analytical Psychopharmacology Laboratories (Nathan Kline Institute, Orangeburg, N.Y.), both by gas chromatography.

BBB permeability [3] = test: Example 5: mifepristone pellet in rats, delivery of methotrexate to brain; type: in vivo; settings: mifepristone 200 mg 10 day sustained-release pellet, methotrexate 0.5 mg i.v. 2 h before sacrifice
Procedure: Rats (male Sprague Dawley 175-200 grams) are maintained, 3 rats per cage, under controlled temperature and lighting (12 hours light/12 hours dark) with food and water ad libitum. […] Two hours prior to sacrifice the animals are injected with either methotrexate (0.5 mg i.v; Sigma Chemical Co., (800)325-3010) or an equivalent volume of vehicle (saline, pH 9). Animal sacrifice is by decapitation during the first four hours of the light cycle. Blood is collected and brains removed and frozen on dry ice for storage at −80° C. Methotrexate concentration is measured in the brains of the experimental animals. The methotrexate concentration is greater in the brains of mifepristone-treated animals than in placebo-treated animals.

BBB permeability [4] = test: Example 4: mifepristone pellet in rats, delivery of ampicillin to brain; type: in vivo; settings: mifepristone 200 mg 10-day sustained release pellet, ampicillin 1.5 mg i.v. 2 h before sacrifice
Procedure: Animal sacrifice is by decapitation during the first four hours of the light cycle. Blood is collected and brains removed and frozen on dry ice for storage at −80° C. Ampicillin concentration is measured in the brains of the experimental animals.

BBB permeability [5] = test: Example 3: mifepristone pellet in rats, delivery of Amphotericin B to brain; type: in vivo; settings: mifepristone 200 mg 10-day sustained release pellet, Amphotericin B 0.1 mg i.v. 2 h before sacrifice
Procedure: Rats (male Sprague Dawley 175-200 grams) are maintained, 3 rats per cage, under controlled temperature and lighting (12 hours light/12 hours dark) with food and water ad libitum. […] Two hours prior to sacrifice the animals are injected with either Amphotericin B (0.1 mg i.v.; Sigma Chemical Co., (800) 325-3010) or an equivalent volume of vehicle (0.1% DMSO in saline, pH 11). Animal sacrifice is by decapitation during the first four hours of the light cycle. Blood is collected and brains removed and frozen on dry ice for storage at −80° C. Amphotericin B concentration is measured in the brains of the experimental animals. The Amphotericin B concentration is greater in the brains of mifepristone-treated animals than in placebo-treated animals.

BBB permeability [6] = settings: adrenalectomized rats with vehicle (placebo) pellets; haloperidol 1 mg/kg s.c. or clozapine 15 mg/kg s.c., 2 h before sacrifice
[7] = rats, mifepristone 200 mg 10-day sustained-release pellet, clozapine 15 mg/kg s.c.
[8] = rats, mifepristone 200 mg 10-day sustained-release pellet, haloperidol 1 mg/kg s.c.

adriamycin concentration in the brain, mifepristone-treated vs placebo (BBB permeability [1])	brain concentration of clozapine, mifepristone-treated vs placebo (BBB permeability [2]; [7])	brain concentration of haloperidol, mifepristone-treated vs placebo (BBB permeability [2]; [8])	methotrexate concentration in the brain, mifepristone-treated vs placebo (BBB permeability [3])	ampicillin concentration in the brain, mifepristone-treated vs placebo (BBB permeability [4])	Amphotericin B concentration in the brain, mifepristone-treated vs placebo (BBB permeability [5])	SMILES	increase in dopamine metabolite levels following clozapine treatment, mifepristone-treated vs placebo (BBB permeability [2]; [7])	increase in dopamine metabolite levels following haloperidol treatment, mifepristone-treated vs placebo (BBB permeability [2]; [8])	measured levels of HVA and DOPAC in the brain (BBB permeability [6])	measured levels of HVA and DOPAC in the brain (BBB permeability [2]; rats with placebo pellet, haloperidol 1 mg/kg s.c. or clozapine 15 mg/kg s.c., 2 h before sacrifice)
greater	greater	greater	greater	greater	greater	CC#C[C@]1(O)CC[C@H]2[C@@H]3CCC4=CC(=O)CCC4=C3[C@@H](c3ccc(N(C)C)cc3)C[C@@]21C [mifepristone, (11β,17β)-11-[4-(dimethylamino)phenyl]-17-hydroxy-17-(1-propynyl)estra-4,9-dien-3-one]	greater	greater		
						O=C(CCCN1CCC(O)(c2ccc(Cl)cc2)CC1)c1ccc(F)cc1 [haloperidol]			elevated	elevated

Reference: patent publication US20020065259A1, “Glucocorticoid blocking agents for increasing blood-brain barrier permeability” (priority 2000, published 2002)
